# Measurements published in BindingDB's records for patent US10377770 (Novartis, 2019).
# Target: RAF proto-oncogene serine/threonine-protein kinase [Y340E,Y341E] (Human, UniProt P04049, Y340E/Y341E)
# Experiment: Biological Assays
# From the text: The activity of a compound according to the present invention can be assessed by well-known in vitro & in vivo methods. […] CRAF cDNA was subcloned as full length protein, with Y340E and Y341E activating mutations, into a baculovirus expression vector for Sf9 insect cell expression. h14-3-3 zeta cDNA was subcloned into a baculovirus expression vector for SF9 insect cell expression. Sf9 cells co-expressing both proteins were lysed and subjected to immobilized nickel chromatography and eluted with Imidazole. A second column (StrepII binding column) was used and eluted with desthiobiotin. Protein Tags were removed using Prescission enzyme and the protein was further purified using a flowthrough step to remove tags.C-Raf TR refers to a truncated C-Raf protein, a Δ1-324 deletion mutant. C-Raf FL refers to the full-length C-Raf protein.Full length MEK1 with an inactivating K97R ATP binding site mutation is utilized as a RAF substrate. The MEK1 cDNA was subcloned with an N-terminal (his)6 tag into a vector for E. Coli expression. The MEK1 substrate was purified from E. Coli lysate by nickel affinity chromatography followed by anion exchange. The final MEK1 preparation was biotinylated (Pierce EZ-Link Sulfo-NHS-LC-Biotin) and concentrated.Assay Materials: Assay buffer is 50 mM Tris, pH 7.5, 15 mM MgCl2, 0.01% Bovine Serum Albumin (BSA) and 1 mM dithiothreitol (DTT); Stop buffer is 60 mM ethylenediaminetetraacetic acid (EDTA) and 0.01% Tween 20; b-Raf (V600E), active; biotinylated Mek, kinase dead; Alpha Screen detection kit (available from PerkinElmer , #6760617R); Anti phospho-MEK1/2 (available from Cell Signaling Technology, Inc. #9121); 384 well low volume assay plates (White Greiner plates).Assay conditions: b-Raf (V600E) approximately 4 pM; c-Raf approximately 4 nM; biotinylated Mek, kinase dead approximately 10 nM; ATP 10 μM for BRAF (V600E) and 1 μM for CRAF; Pre-incubation time with compounds 60 minutes at room temperature; Reaction time 1 or 3 hours at room temperature.Assay protocol: Raf and biotinylated Mek (kinase dead) were combined at 2× final concentrations in assay buffer (50 mM Tris, pH 7.5, 15 mM MgCl2, 0.01% BSA and 1 mM DTT) and dispensed […] per well in assay plates (Greiner white 384 well assay plates #781207) containing […] of 40× of a Raf kinase inhibitor test compound diluted in 100% DMSO. The plate was incubated for 60 minutes at room temperature. The Raf kinase activity reaction was started by the addition of […] per well of 2×ATP diluted in assay buffer. After 3 hours (b-Raf(V600E)) or 1 hour (c-Raf). The reactions were stopped and the phosphorylated product was measured using a rabbit anti-p-MEK (Cell Signaling, #9121) antibody and the Alpha Screen IgG (ProteinA) detection Kit (PerkinElmer #6760617R), by the addition of […] to the well of a mixture of the antibody (1:2000 dilution) and detection beads (1:2000 dilution of both beads) in Stop/bead buffer (25 mM EDTA, 50 mM Tris, pH 7.5, 0.01% Tween20). The additions were carried out under dark conditions to protect the detection beads from light. A lid was placed on top of the plate and incubated for 1 hour at room temperature, after which the luminescence was read on a PerkinElmer Envision instrument.
# Sequence of RAF proto-oncogene serine/threonine-protein kinase [Y340E,Y341E] (P04049 whole entry Y340E/Y341E): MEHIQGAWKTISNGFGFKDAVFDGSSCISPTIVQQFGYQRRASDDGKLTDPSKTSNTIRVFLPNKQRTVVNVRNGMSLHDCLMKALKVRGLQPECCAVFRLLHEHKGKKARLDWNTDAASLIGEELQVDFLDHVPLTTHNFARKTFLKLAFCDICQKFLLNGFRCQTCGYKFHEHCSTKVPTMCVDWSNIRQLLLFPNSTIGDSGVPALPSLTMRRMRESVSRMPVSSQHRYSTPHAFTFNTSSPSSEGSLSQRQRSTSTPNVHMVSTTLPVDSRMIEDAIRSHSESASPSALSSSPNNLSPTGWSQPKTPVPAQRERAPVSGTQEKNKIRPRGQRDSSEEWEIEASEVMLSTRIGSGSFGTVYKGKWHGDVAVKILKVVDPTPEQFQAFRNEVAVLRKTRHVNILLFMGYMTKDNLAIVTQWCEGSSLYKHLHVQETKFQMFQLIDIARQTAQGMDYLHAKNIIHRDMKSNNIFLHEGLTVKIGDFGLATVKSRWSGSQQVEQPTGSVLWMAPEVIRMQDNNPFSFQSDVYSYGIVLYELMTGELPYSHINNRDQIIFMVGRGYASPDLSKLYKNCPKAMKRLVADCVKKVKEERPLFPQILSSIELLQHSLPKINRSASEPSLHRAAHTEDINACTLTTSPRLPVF
row,Compound,IC50 [pM]
1,"CCN1C(=O)[C@H]2COCCN2c2cc(-c3cc(NC(=O)c4ccnc(C(F)(F)F)c4)ccc3C)nnc21 [US10377770, Example 134]",16
2,"Cc1ccc(NC(=O)c2ccnc(C(F)(F)F)c2)cc1-c1cnc2c(c1)C1CCOCCC1C(=O)N2CCO (centres undefined) [US10377770, Example 284]",< 100
3,"Cc1ccc(NC(=O)c2ccnc(C(F)(F)F)c2)cc1-c1cnc2c(c1)N1CCOCC1C1(COC1)C2 (racemic) [US10377770, Example 153]",5
4,"Cc1ccc(NC(=O)c2ccnc(C(F)(F)F)c2)cc1-c1cnc2c(c1)[C@@H]1CCOC[C@H]1C(=O)N2CCO [US10377770, Example 258]",< 100
5,"Cc1ccc(NC(=O)c2cccc(C(F)(F)F)n2)cc1-c1ccc2c(c1)N1CCOC[C@H]1[C@](F)(CO)C2 [US10377770, Example 389]",500
6,"Cc1ccc(NC(=O)c2ccnc(C(F)(F)F)n2)cc1-c1ccc2c(c1)N1CCOC[C@H]1[C@](F)(CO)C2 [US10377770, Example 388]",400
7,"CCN1C(=O)[C@@H]2COCCN2c2cc(-c3cc(NC(=O)c4ccnc(C(F)(F)F)c4)ccc3C)nnc21 [US10377770, Example 133]",11
8,"Cc1ccc(NC(=O)c2ccnc(C(C)(F)F)c2)cc1-c1cnc2c(c1)[C@@H]1CCOC[C@H]1C(=O)N2CCO [US10377770, Example 267]",< 100
9,"CCN1C(=O)OC2COCCC2c2cc(-c3cc(NC(=O)c4ccnc(C(F)(F)F)c4)ccc3C)cnc21 (centres undefined) [US10377770, Example 297]",900
10,"CCN1C(=O)OC2COCCC2c2cc(-c3cc(NC(=O)c4cnnc(C(F)(F)F)c4)ccc3C)cnc21 (centres undefined) [US10377770, Example 301]",< 100
11,"Cc1ccc(NC(=O)c2ccnc(C(C)(F)F)c2)cc1-c1cnc2c(c1)C1CCOCCC1C(=O)N2CCO (centres undefined) [US10377770, Example 286]",< 100
12,"CCN1C(=O)[C@@H]2COCC[C@H]2c2cc(-c3cc(NC(=O)c4cnnc(C(F)(F)F)c4)ccc3C)cnc21 [US10377770, Example 257]",< 100
13,"Cc1ccc(NC(=O)c2ccnc(C(F)(F)F)c2)cc1-c1ccc2c(c1)N1CCOC[C@@H]1[C@@](CO)(CF)C2 [US10377770, Example 405]",200
14,"Cc1ccc(NC(=O)c2ccnc(C(F)(F)F)c2)cc1-c1cnc2c(c1)N1CCOC[C@H]1CC(=O)N2CCO [US10377770, Example 333]",< 100
